Results reported in patent US8343999B2, “Thiazolyl compounds useful as kinase inhibitors” (Bristol-Myers Squibb Company, priority 2007, dated 2013).

Tests used:
[1] = system: IGF1R-Sal tumors; assay: IGF-1R Sal Tumor Model (tumor xenograft in nude mice); format: in vivo; conditions: qd, orally for 4 consecutive days, nude mice bearing IGF1R-Sal tumors
Description: P. IGF-1R Sal Tumor Model
A salivary gland adenocarcinoma that developed spontaneously in a transgenic mouse (MCI-19) was excised and cut into fragments of about 20 mg. Tumor fragments were implanted s.c. into the ventral thoracic region of a group of six female, athymic BALB/c nu/nu mice (Harley Sprague-Dawley, Indianapolis, Ind.), using a 13-gauge trocar. Once established, the salivary gland-derived tumor line was designated IGF1R-Sal and was propagated as a tumor xenograft in nude mice. Tumors were passaged every 2 weeks, at which time the tumor reached f500 to 1,000 mm3 in size. For treatment studies, nude micebearing IGF1R-Sal tumors of about 100 mm3 in size were sorted into groups of five for treatment with vehicle (80% polyethylene glycol 400 in water) alone or the test article. Compounds were administered either on a bid schedule (oral doses 8 hours apart) or on a once a day schedule orally (qd) for 4 consecutive days. Tumors were measured at the start and end of treatment. Activity was measured as % tumor growth inhibition (% TGI). The % TGI was determined using the following formula (Ct−Tt)/(Ct−Co) where Ct is defined as the median tumor size of the control group at the end of treatment, Co is defined as the median tumor size of the control group at the start of treatment, and Tt is defined as the median tumor size of the treated group at the end of treatment.
(§1) Compounds described herein were tested in the above assay.

[2] = target: IGF1-receptor (Homo sapiens, UniProt P08069); assay: IGF1-Receptor Tyrosine Kinase Assay (Caliper LabChip, fluoresceinated IGF1R substrate peptide); format: biochemical; conditions: In vitro kinase data; ATP 25 μM, IGF1-Receptor 14 nM; read-out: IGF-1R IC50
IGF1-receptor, sequence (P08069 31-1367): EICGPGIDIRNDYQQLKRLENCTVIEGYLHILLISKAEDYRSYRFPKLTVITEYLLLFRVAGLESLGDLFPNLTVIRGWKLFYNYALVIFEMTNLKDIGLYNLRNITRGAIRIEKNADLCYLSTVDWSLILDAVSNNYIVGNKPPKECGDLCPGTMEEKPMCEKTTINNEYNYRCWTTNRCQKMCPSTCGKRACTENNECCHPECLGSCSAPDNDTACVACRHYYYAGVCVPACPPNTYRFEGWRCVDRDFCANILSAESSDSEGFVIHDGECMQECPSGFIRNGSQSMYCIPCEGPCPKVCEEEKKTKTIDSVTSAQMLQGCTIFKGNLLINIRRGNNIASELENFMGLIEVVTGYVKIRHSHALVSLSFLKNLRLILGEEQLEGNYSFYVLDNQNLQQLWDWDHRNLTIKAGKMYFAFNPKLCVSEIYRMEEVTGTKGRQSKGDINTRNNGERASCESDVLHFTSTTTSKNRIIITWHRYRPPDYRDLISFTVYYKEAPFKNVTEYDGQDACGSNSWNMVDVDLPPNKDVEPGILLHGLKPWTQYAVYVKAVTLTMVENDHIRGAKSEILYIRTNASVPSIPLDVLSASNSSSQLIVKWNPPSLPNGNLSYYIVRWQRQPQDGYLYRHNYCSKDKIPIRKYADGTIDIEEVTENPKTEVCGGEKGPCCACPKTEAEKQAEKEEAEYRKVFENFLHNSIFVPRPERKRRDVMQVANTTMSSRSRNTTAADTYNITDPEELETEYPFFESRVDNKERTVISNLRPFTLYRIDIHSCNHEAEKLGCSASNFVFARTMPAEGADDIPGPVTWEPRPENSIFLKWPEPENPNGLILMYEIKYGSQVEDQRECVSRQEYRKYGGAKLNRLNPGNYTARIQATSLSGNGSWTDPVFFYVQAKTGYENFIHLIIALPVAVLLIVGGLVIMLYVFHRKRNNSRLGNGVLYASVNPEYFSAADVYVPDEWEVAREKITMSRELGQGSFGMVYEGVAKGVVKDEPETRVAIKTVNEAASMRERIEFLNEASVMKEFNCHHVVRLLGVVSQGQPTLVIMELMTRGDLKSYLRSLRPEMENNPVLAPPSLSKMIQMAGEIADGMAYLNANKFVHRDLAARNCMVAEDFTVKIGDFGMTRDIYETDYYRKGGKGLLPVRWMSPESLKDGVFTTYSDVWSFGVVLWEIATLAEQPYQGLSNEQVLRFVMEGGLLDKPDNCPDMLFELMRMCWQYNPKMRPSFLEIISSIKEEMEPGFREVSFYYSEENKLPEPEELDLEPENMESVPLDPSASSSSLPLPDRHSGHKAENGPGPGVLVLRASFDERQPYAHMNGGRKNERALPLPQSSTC
Description: D. IGF1-Receptor Tyrosine Kinase Assay
The assays were performed in U-bottom 384-well plates. The final assay volume was 30 μl prepared from 15 μl additions of enzyme and substrates (fluoresceinated IGF1R substrate peptide and ATP) and test compounds in assay buffer (100 mM HEPES pH 7.4, 10 mM MnCl2, 0.015% Brij35 and 4 mM DTT). The reaction was initiated by the combination of IGF1-receptor with substrates and test compounds. The reaction was incubated at room temperature for 60 min. and terminated by adding 30 μl of 35 mM EDTA to each sample. The reaction mixture was analyzed on the Caliper LabChip 3000 by electrophoretic separation of the fluorescent substrate and phosphorylated product. Inhibition data were calculated by comparison to no enzyme control reactions for 100% inhibition and vehicle-only reactions for 0% inhibition. The final concentration of reagents in the assays is ATP, 25 μM; FL-peptide, 1.5 μM; IGF1-Receptor, 14 nM; and DMSO, 1.6%. Dose response curves were generated to determine the concentration required inhibiting 50% of kinase activity (IC50). Compounds were dissolved at 10 mM in dimethylsulfoxide (DMSO) and evaluated at eleven concentrations, each in duplicate. IC50 values were derived by non-linear regression analysis.
as §1

Row | Structure (SMILES) | IC50 [2] [nM] | also measured
1 | Cc1ccnc(Nc2ncc(Sc3ccnc(C(=O)NCC4(c5ccccc5)CCN(C)CC4)c3F)s2)c1 [Example 2, 3-Fluoro-N-((1-methyl-4-phenylpiperidin-4-yl)methyl)-4-(2-(4-methylpyridin-2-ylamino)thiazol-5-ylthio)picolinamide] | 9 | % TGI ([1]; 12.5 mg/kg): 107%
2 | Cc1ccnc(Nc2ncc(Sc3ccnc(C(=O)NCC4(c5ccccc5)CCN(CCO)CC4)c3F)s2)c1 [Example 5, 3-Fluoro-N-((1-(2-hydroxyethyl)-4-phenylpiperidin-4-yl)methyl)-4-(2-(4-methylpyridin-2-ylamino)thiazol-5-ylthio)picolinamide] | 3 | % TGI ([1]; 12.5 mg/kg): 102%
3 | Cc1ccnc(Nc2ncc(Sc3ccnc(C(=O)NCC4(c5ccccc5)CCNCC4)c3F)s2)c1 [Example 11, 3-Fluoro-4-(2-(4-methylpyridin-2-ylamino)thiazol-5-ylthio)-N-((4-phenylpiperidin-4-yl)methyl)picolinamide] | 4 | % TGI ([1]; 12.5 mg/kg): 19%
4 | Cc1ccnc(Nc2ncc(Sc3ccnc(C(=O)NCC4(c5ccccc5)CCN(C(=O)CN(C)C)CC4)c3F)s2)c1 [Example 12, N-((1-(2-(dimethylamino)acetyl)-4-phenylpiperidin-4-yl)methyl)-3-fluoro-4-(2-(4-methylpyridin-2-ylamino)thiazol-5-ylthio)picolinamide] | 6 | % TGI ([1]; 12.5 mg/kg): 92%
5 | Cc1ccnc(Nc2ncc(Sc3ccnc(C(=O)NCC4(c5ccccc5)CCN(C(=O)c5cccnc5)CC4)c3F)s2)c1 [Example 18, 3-Fluoro-4-(2-(4-methylpyridin-2-ylamino)thiazol-5-ylthio)-N-((1-nicotinoyl-4-phenylpiperidin-4-yl)methyl)picolinamide] | 1 | –
6 | CC(=O)N1CCC(CNC(=O)c2nccc(Sc3cnc(Nc4cc(C)ccn4)s3)c2F)(c2ccccc2)CC1 [Example 22, N-((1-acetyl-4-phenylpiperidin-4-yl)methyl)-3-fluoro-4-(2-(4-methylpyridin-2-ylamino)thiazol-5-ylthio)picolinamide] | 3 | –
7 | Cc1ccnc(Nc2ncc(Sc3ccnc(C(=O)NCC4(c5ccccc5)CCN(S(C)(=O)=O)CC4)c3F)s2)c1 [Example 24, 3-Fluoro-4-(2-(4-methylpyridin-2-ylamino)thiazol-5-ylthio)-N-((1-(methylsulfonyl)-4-phenylpiperidin-4-yl)methyl)picolinamide] | 1 | –
8 | Cc1ccnc(Nc2ncc(Sc3ccnc(C(=O)NCC4(c5ccccc5)CCN(CCC#N)CC4)c3F)s2)c1 [Example 33, N-((1-(2-cyanoethyl)-4-phenylpiperidin-4-yl)methyl)-3-fluoro-4-(2-(4-methylpyridin-2-ylamino)thiazol-5-ylthio)picolinamide] | 320 | –
9 | Cc1ccnc(Nc2ncc(Sc3ccnc(C(=O)NCC4(C5CCCCC5)CCN(C(=O)OC(C)(C)C)CC4)c3F)s2)c1 [Example 44, tert-butyl 4-cyclohexyl-4-((3-fluoro-4-(2-(4-methylpyridin-2-ylamino)thiazol-5-ylthio)picolinamido)methyl)piperidine-1-carboxylate] | 25000 | –
10 | Cc1ccnc(Nc2ncc(Sc3ccnc(C(=O)NCC4(c5ccccn5)CCN(CCO)CC4)c3F)s2)c1 [Example 58, 3-fluoro-N-((1-(2-hydroxyethyl)-4-(pyridin-2-yl)piperidin-4-yl)methyl)-4-(2-(4-methylpyridin-2-ylamino)thiazol-5-ylthio)picolinamide] | 3 | –
11 | Cc1ccnc(Nc2ncc(Sc3ccnc(C(=O)NCC4(C5CCCCC5)CCN(C[C@H](O)CO)CC4)c3F)s2)c1 [Example 74, (S)—N-((4-cyclohexyl-1-(2,3-dihydroxypropyl)piperidin-4-yl)methyl)-3-fluoro-4-(2-(4-methylpyridin-2-ylamino)thiazol-5-ylthio)picolinamide] | 9 | % TGI ([1]; 50 mg/kg): 100%
12 | Cc1ccnc(Nc2ncc(Sc3ccnc(C(=O)NCC4(c5ccc(F)cc5F)CCN(C[C@H](O)CO)CC4)c3F)s2)c1 [Example 77, (S)—N-((4-(2,4-difluorophenyl)-1-(2,3-dihydroxypropyl)piperidin-4-yl)methyl)-3-fluoro-4-(2-(4-methylpyridin-2-ylamino)thiazol-5-ylthio)picolinamide] | 9 | % TGI ([1]; 25 mg/kg): 114%
13 | COCCOC(=O)N1CCC(CNC(=O)c2nccc(Sc3cnc(Nc4cc(C)ccn4)s3)c2F)(c2ccc(Cl)c(Cl)c2)CC1 [Example 86, 2-methoxyethyl 4-(3,4-dichlorophenyl)-4-((3-fluoro-4-(2-(4-methylpyridin-2-ylamino)thiazol-5-ylthio)picolinamido)methyl)piperidine-1-carboxylate] | 5690 | –
14 | COC(=O)N1CCC(CNC(=O)c2nccc(Sc3cnc(Nc4cc(C)ccn4)s3)c2F)(c2ccccn2)CC1 [Example 87, Methyl 4-((3-fluoro-4-(2-(4-methylpyridin-2-ylamino)thiazol-5-ylthio)picolinamido)methyl)-4-(pyridin-2-yl)piperidine-1-carboxylate] | 423 | –
15 | COCCOC(=O)N1CCC(CNC(=O)c2nccc(Sc3cnc(Nc4cc(C)ccn4)s3)c2F)(c2ccccn2)CC1 [Example 88, 2-Methoxyethyl 4-((3-fluoro-4-(2-(4-methylpyridin-2-ylamino)thiazol-5-ylthio)picolinamido)methyl)-4-(pyridin-2-yl)piperidine-1-carboxylate] | 349 | –
16 | Cc1ccnc(Nc2ncc(Sc3ccnc(C(=O)NCC4(c5ccccc5)CCN(C(=O)N(C)C)CC4)c3F)s2)c1 [Example 89, N-((1-(dimethylcarbamoyl)-4-phenylpiperidin-4-yl)methyl)-3-fluoro-4-(2-(4-methylpyridin-2-ylamino)thiazol-5-ylthio)picolinamide] | 358 | –
17 | Cc1ccnc(Nc2ncc(Sc3ccnc(C(=O)NCC4(c5ccccc5)CCN(C(=O)N5CCOCC5)CC4)c3F)s2)c1 [Example 90, 3-Fluoro-4-(2-(4-methylpyridin-2-ylamino)thiazol-5-ylthio)-N-((1-(morpholine-4-carbonyl)-4-phenylpiperidin-4-yl)methyl)picolinamide] | 311 | –
18 | Cc1ccnc(Nc2ncc(Sc3ccnc(C(=O)NCC4(c5ccccc5)CCN(C(=O)c5ccc(Cl)c(S(N)(=O)=O)c5)CC4)c3F)s2)c1 [Example 92, N-((1-(4-chloro-3-sulfamoylbenzoyl)-4-phenylpiperidin-4-yl)methyl)-3-fluoro-4-(2-(4-methylpyridin-2-ylamino)thiazol-5-ylthio)picolinamide] | 2000 | –
19 | Cc1ccnc(Nc2ncc(Sc3ccnc(C(=O)NCC4(c5ccccc5)CCN(C(=O)c5cc(S(N)(=O)=O)c(F)cc5Cl)CC4)c3F)s2)c1 [Example 93, N-((1-(2-chloro-4-fluoro-5-sulfamoylbenzoyl)-4-phenylpiperidin-4-yl)methyl)-3-fluoro-4-(2-(4-methylpyridin-2-ylamino)thiazol-5-ylthio)picolinamide] | 3260 | –
20 | Cc1ccnc(Nc2ncc(Sc3ccnc(C(=O)NCC4(c5ccccc5)CCN(C(=O)C(C)(C)N)CC4)c3F)s2)c1 [Example 95, N-((1-(2-amino-2-methylpropanoyl)-4-phenylpiperidin-4-yl)methyl)-3-fluoro-4-(2-(4-methylpyridin-2-ylamino)thiazol-5-ylthio)picolinamide] | 4520 | –
